# From patent publication US10807986B2, “Fused pyrimidine compound or salt thereof” (TAIHO PHARMACEUTICAL CO., LTD., priority 2016, dated 2020)
# Experiment: Evaluation of stability in liver microsome
# Conditions: mouse liver microsome 0.25 mg/mL, test compound 1 μM, 37° C., 30 minutes
row,Remaining (%),SMILES
1,85%,"COCc1ccc(NC(=O)c2c(C#Cc3ccc4c(c3)NCCO4)n(C3(C)CC3)c3ncnc(N)c23)cc1 [Example 158, 4-amino-6-((3,4-dihydro-2H-benzo[b][1,4]oxazin-6-yl)ethynyl)-N-(4-(methoxymethyl)phenyl)-7-(1-methylcyclopropyl)-7H-pyrrolo[2,3-d]pyrimidine-5-carboxamide]"
2,78%,"COCc1ccc(NC(=O)c2c(C#Cc3cnc4ccoc4c3)n(C3(C)CC3)c3ncnc(N)c23)cc1 [Example 159, 4-amino-6-(furo[3,2-b]pyridin-6-ylethynyl)-N-(4-(methoxymethyl)phenyl)-7-(1-methylcyclopropyl)-7H-pyrrolo[2,3-d]pyrimidine-5-carboxamide]"
3,68%,"COCc1ccc(NC(=O)c2c(C#Cc3ccc[nH]3)n(C3(C)CC3)c3ncnc(N)c23)cc1 [Example 161, 6-((1H-pyrrol-2-yl)ethynyl)-4-amino-N-(4-(methoxymethyl)phenyl)-7-(1-methylcyclopropyl)-7H-pyrrolo[2,3-d]pyrimidine-5-carboxamide]"
4,76%,"COCc1ccc(NC(=O)c2c(C#Cc3ccccc3)n(C3(C)CC3)c3ncnc(N)c23)cc1 [Example 162, 4-amino-N-(4-(methoxymethyl)phenyl)-7-(1-methylcyclopropyl)-6-(phenylethynyl)-7H-pyrrolo[2,3-d]pyrimidine-5-carboxamide]"
5,90%,"COCc1ccc(NC(=O)c2c(C#Cc3ccc(OC)cc3)n(C3(C)CC3)c3ncnc(N)c23)cc1 [Example 165, 4-amino-N-(4-(methoxymethyl)phenyl)-6-((4-methoxypheny)ethynyl)-7-(1-methylcyclopropyl)-7H-pyrrolo[2,3-d]pyrimidine-5-carboxamide]"
6,80%,"COCc1ccc(NC(=O)c2c(-c3cn[nH]c3)n(C3(C)CC3)c3ncnc(N)c23)cc1 [Example 167, 4-amino-N-(4-(methoxymethyl)phenyl)-7-(1-methylcyclopropyl)-6-(1H-pyrazol-4-yl)-7H-pyrrolo[2,3-d]pyrimidine-5-carboxamide]"
7,77%,"COCc1ccc(NC(=O)c2c(-c3ccc(N4CCN(C)CC4)cc3)n(C3(C)CC3)c3ncnc(N)c23)cc1 [Example 171, 4-amino-N-(4-(methoxymethyl)phenyl)-7-(1-methylcyclopropyl)-6-(4-(4-methylpiperazin-1-yl)phenyl)-7H-pyrrolo[2,3-d]pyrimidine-5-carboxamide]"
8,61%,"COCc1ccc(NC(=O)c2c(C#Cc3ccccn3)n(C3(C)CC3)c3ncnc(N)c23)cc1 [Example 172, 4-amino-N-[4-(methoxymethyl)phenyl]-7-(1-methylcyclopropyl)-6-(pyridin-2-ylethynyl)-7H-pyrrolo[2,3-d]pyrimidine-5-carboxamide]"
9,72%,"COCc1ccc(NC(=O)c2c(C#CC(C)(C)O)n(C3(C)CC3)c3ncnc(N)c23)cc1 [Example 174, 4-amino-6-(3-hydroxy-3-methylbut-1-yn-1-yl)-N-(4-(methoxymethyl)phenyl)-7-(1-methylcyclopropyl)-7H-pyrrolo[2,3-d]pyrimidine-5-carboxamide]"
10,66%,"COCc1ccc(NC(=O)c2c(C#Cc3cncc(F)c3)n(C3(C)CC3)c3ncnc(N)c23)cc1 [Example 175, 4-amino-6-((5-fluoropyridin-3-yl)ethynyl)-N-(4-(methoxymethyl)phenyl)-7-(1-methylcyclopropyl)-7H-pyrrolo[2,3-d]pyrimidine-5-carboxamide]"
11,70%,"COCc1ccc(NC(=O)c2c(C#Cc3ccsc3)n(C3(C)CC3)c3ncnc(N)c23)cc1 [Example 176, 4-amino-N-(4-(methoxymethyl)phenyl)-7-(1-methylcyclopropyl)-6-(thiophen-3-ylethynyl)-7H-pyrrolo[2,3-d]pyrimidine-5-carboxamide]"
12,72%,"COCc1ccc(NC(=O)c2c(C#CC3(O)CCOC3)n(C3(C)CC3)c3ncnc(N)c23)cc1 (stereo not drawn) [Example 177, 4-amino-6-((3-hydroxytetrahydrofuran-3-yl)ethynyl)-N-(4-(methoxymethyl)phenyl)-7-(1-methylcyclopropyl)-7H-pyrrolo[2,3-d]pyrimidine-5-carboxamide]"
13,88%,"COCc1ccc(NC(=O)c2c(C#CCN3CC[S+]([O-])CC3)n(C3(C)CC3)c3ncnc(N)c23)cc1 [Example 178, 4-amino-N-(4-(methoxymethyl)phenyl)-7-(1-methylcyclopropyl)-6-(3-(1-oxidethiomorpholino)prop-1-yn-1-yl)-7H-pyrrolo[2,3-d]pyrimidine-5-carboxamide]"
14,85%,"COCc1ccc(NC(=O)c2c(-c3ccc(CO)nc3)n(C3(C)CC3)c3ncnc(N)c23)cc1 [Example 179, 4-amino-6-(6-(hydroxymethyl)pyridin-3-yl)-N-(4-(methoxymethyl)phenyl)-7-(1-methylcyclopropyl)-7H-pyrrolo[2,3-d]pyrimidine-5-carboxamide]"
15,62%,"COCc1ccc(NC(=O)c2c(C#Cc3cn(C)nc3C)n(C3(C)CC3)c3ncnc(N)c23)cc1 [Example 181, 4-amino-6-((1,3-dimethyl-1H-pyrazol-4-yl)ethynyl)-N-(4-(methoxymethyl)phenyl)-7-(1-methylcyclopropyl)-7H-pyrrolo[2,3-d]pyrimidine-5-carboxamide]"
16,61%,"COCc1ccc(NC(=O)c2c(C#Cc3cnn(C)c3C)n(C3(C)CC3)c3ncnc(N)c23)cc1 [Example 182, 4-amino-6-((1,5-dimethyl-1H-pyrazol-4-yl)ethynyl)-N-(4-(methoxymethyl)phenyl)-7-(1-methylcyclopropy1)-7H-pyrrolo[2,3-d]pyrimidine-5-carboxamide]"
17,77%,"COCc1ccc(NC(=O)c2c(C#CC3CCN(C)CC3)n(C3(C)CC3)c3ncnc(N)c23)cc1 [Example 183, 4-amino-N-(4-(methoxymethyl)phenyl)-7-(1-methylcyclopropyl)-6-((1-methylpiperidin-4-yl)ethynyl)-7H-pyrrolo[2,3-d]pyrimidine-5-carboxamide]"
18,58%,"COCc1ccc(NC(=O)c2c(C#Cc3c(C)noc3C)n(C3(C)CC3)c3ncnc(N)c23)cc1 [Example 184, 4-amino-6-((3,5-dimethylisoxazol-4-yl)ethynyl)-N-(4-(methoxymethyl)phenyl)-7-(1-methylcyclopropyl)-7H-pyrrolo[2,3-d]pyrimidine-5-carboxamide]"
19,80%,"COCc1ccc(NC(=O)c2c(C#CC3(O)CCOCC3)n(C3(C)CC3)c3ncnc(N)c23)cc1 [Example 185, 4-amino-6-((4-hydroxytetrahydro-2H-pyran4-yl)ethynyl)-N-(4-(methoxymethyl)phenyl)-7-(1-methylcyclopropyl)-7H-pyrrolo[2,3-d]pyrimidine-5-carboxamide]"
20,68%,"COCc1ccc(NC(=O)c2c(C#CCCN3CCOCC3)n(C3(C)CC3)c3ncnc(N)c23)cc1 [Example 187, 4-amino-N-(4-(methoxymethyl)phenyl)-7-(1-methylcyclopropyl)-6-(4-morpholinobut-1-yn-1-yl)-7H-pyrrolo [2,3-d]pyrimidine-5-carboxamide]"
21,68%,"COCc1ccc(NC(=O)c2c(C#CCC(C)O)n(C3(C)CC3)c3ncnc(N)c23)cc1 (stereo not drawn) [Example 188, 4-amino-6-(4-hydroxypent-1-yn-1-yl)-N-(4-(methoxymethyl)phenyl)-7-(1-methylcyclopropyl)-7H-pyrrolo[2,3-d]pyrimidine-5-carboxamide]"
